System: IFN-γ-producing OVA323-339-specific CD4 T cells
Assay: Vaccination with ZEBRA CPP truncation constructs plus TLR agonist adjuvant, IFN-γ Elispot on spleen cells, CD4
Type: in vivo, mice
Protocol: (§1) Mice were vaccinated three times (wk0, wk2 and wk9) by s.c. injection (right flank) of 10 nmoles of OVACD8CD4 (the cargo without Zebra CPP truncation), Z13OVACD8CD4, Z14OVACD8CD4, Z15OVACD8CD4, Z18OVACD8CD4 and i.m. injection of 50 μg of Hiltonol (right hind leg). One week after the last vaccination, Elispot assay was performed on spleen cells for detecting IFN-y-producing OVA257-264-specific CD8 T cells (A) and OVA323-339-specific CD4 T cells (B). *, p<0.05; **, p<0.01.
as §1, with “Z15OVACD8CD4 or” for “Z15OVACD8CD4,”, “20” for “i.m. injection of 50”, “Pam3CSK4.” for “Hiltonol (right hind leg).”, “IFN-γ-producing” for “IFN-y-producing”
Mice were vaccinated three times (wk0, wk2 and wk9) by s.c. injection (right flank) of 10 nmoles of Z13OVACD8CD4, Z15OVACD8CD4 or Z18OVACD8CD4 and 20 μg of MPLA. […]
Firstly, those constructs were tested with Hiltonol adjuvant (a TLR3 agonist). […] The number of peptide-specific IFN-γ-producing cells was calculated by subtracting the number of IFN-γ-secreting cells cultured without peptide to that obtained with cells cultured with peptide. […]

| Sequence | CD4 immune response, combined with MPLA (10 nmol ZxxOVACD8CD4 s.c. wk0, wk2, wk9 and 20 μg MPLA (TLR4 agonist)) | CD4 immune response, combined with Pam3CSK4 (10 nmol ZxxOVACD8CD4 s.c. wk0, wk2, wk9 and 20 μg Pam3CSK4 (TLR2 agonist)) |
| --- | --- | --- |
| KRYKNRVASRKSRAKFKQLLQHYREVAAAKSSENDRLRLLLK [Z13] | most efficacious |  |
| REVAAAKSSENDRLRLLLK [Z18] |  | highest CD8 and CD4 immune response |

— patent US20180133327A1, “Cell Penetrating Peptides and Complexes Comprising the Same” (Amal Therapeutics SA, priority 2015, published 2018)
